Consider 8 compounds from ChEMBL document CHEMBL4316651, “Halogenated Tyrosine Derivatives from the Tropical Eastern Pacific Zoantharians Antipathozoanthus hickmani and Parazoanthus darwini” (J Nat Prod, 2019).

Broadly, the IC50 is the concentration at which inhibition is half-maximal.

The source made the active and inactive calls. The calls are words filed in the database; no cut-off is given here.

Test [1] relates to Staphylococcus aureus. Kind of test: Antimicrobial activity against methicillin-sensitive Staphylococcus aureus ATCC 29213 at 128 ug/ml by CLSI protocol based method. Type of test: functional, organism-based.
Test [2] relates to Staphylococcus aureus. Kind of test: Antimicrobial activity against methicillin-resistant Staphylococcus aureus MB5393 at 128 ug/ml by CLSI protocol based method. Type of test: functional, organism-based.
The subject of the next test is Escherichia coli. Kind of test: Antimicrobial activity against Escherichia coli ATCC 25922 at 128 ug/ml by CLSI protocol based method. Type of test: functional, organism-based.
In a further test the test system is Klebsiella pneumoniae. In words: Antimicrobial activity against Klebsiella pneumoniae ATCC 700603 at 128 ug/ml by CLSI protocol based method. Type of test: functional, organism-based.
The test system of a further test is Acinetobacter baumannii. Kind of test: Antimicrobial activity against Acinetobacter baumannii MB5973 at 128 ug/ml by CLSI protocol based method. Type of test: functional, organism-based.
A further test has as its system Pseudomonas aeruginosa. In words: Antimicrobial activity against Pseudomonas aeruginosa PAO1 at 128 ug/ml by CLSI protocol based method. Type of test: functional, organism-based.
A further test deals with HepG2. In words: Cytotoxicity in human HepG2 cells incubated for 24 hrs by MTT assay. Type of test: functional, cell-based. A general note: Tetrazolium assays rely on reduction of a dye to a coloured formazan, in cell work by metabolically active cells.
For a further test, the system named is A549. In words: Cytotoxicity in human A549 cells incubated for 24 hrs by MTT assay. Type of test: functional, cell-based.
Another test relates to MIA PaCa-2. Kind of test: Cytotoxicity in human MIAPaCa2 cells incubated for 24 hrs by MTT assay. Type of test: functional, cell-based.
Another test relates to Candida albicans. Kind of test: Antimicrobial activity against Candida albicans ATCC 64124 at 128 ug/ml by CLSI protocol based method. Type of test: functional, organism-based.

For `C[N+](C)(C)CCc1cc(Br)c(O)c(I)c1.O=C([O-])C(F)(F)F`, the result in the test on Staphylococcus aureus [1], in the test with Staphylococcus aureus [2], with Escherichia coli, in the test with Klebsiella pneumoniae, in the test with Acinetobacter baumannii and with Pseudomonas aeruginosa was inactive. For the same compound, in the test on Candida albicans, the outcome was inactive. Also, the IC50 result in the test on HepG2 (hepg2), in the test on A549 and in the test with MIA PaCa-2 was “Not Active” throughout.
For `CCC(C)C(=O)Nc1nc2c([nH]1)[C@@H](C)c1[nH]c(NC(=O)C=C(C)C)nc1CC2` (some centres not stated), the outcome with Staphylococcus aureus [1], in the test with Staphylococcus aureus [2], with Escherichia coli, in the test with Klebsiella pneumoniae, in the test on Acinetobacter baumannii and with Pseudomonas aeruginosa was inactive. The outcome in the test on Candida albicans was inactive. Further, the IC50 entry with HepG2 (hepg2), in the test with A549 and with MIA PaCa-2 was “Not Active” in each case.
With `C[N+](C)(C)CC(=O)N[C@@H](Cc1cc(Br)c(O)c(I)c1)C(=O)O.O=C([O-])C(F)(F)F`, the outcome in the test with Staphylococcus aureus [1], in the test with Staphylococcus aureus [2], in the test with Escherichia coli, with Klebsiella pneumoniae, in the test on Acinetobacter baumannii and in the test with Pseudomonas aeruginosa was inactive. The outcome in the test with Candida albicans was inactive. In addition, the IC50 with HepG2 (Homo sapiens, HepG2, 24 h, read-out: IC50) was 7.8 µM; with A549 it was “Not Active”; in the test on MIA PaCa-2, “Not Active”.
Take `C[N+]1(C)CCC[C@@H]1C(=O)N[C@@H](Cc1cc(Br)c(O)c(Br)c1)C(=O)O.O=C([O-])C(F)(F)F`: the outcome with Staphylococcus aureus [1], with Staphylococcus aureus [2], with Escherichia coli, in the test with Klebsiella pneumoniae, with Acinetobacter baumannii and in the test with Pseudomonas aeruginosa was inactive. For the same compound, the outcome with Candida albicans was inactive. Besides, the IC50 entry with HepG2 (hepg2), in the test with A549 and in the test with MIA PaCa-2 was “Not Active” in each case.
Regarding `C[N+](C)(C)CC(=O)N[C@@H](Cc1cc(Br)c(O)c(Br)c1)C(=O)O.O=C([O-])C(F)(F)F`, the result with Staphylococcus aureus [1], with Staphylococcus aureus [2], in the test with Escherichia coli, in the test with Klebsiella pneumoniae, in the test on Acinetobacter baumannii and in the test with Pseudomonas aeruginosa was inactive. Moreover, the result with Candida albicans was inactive. Further, the IC50 entry in the test on HepG2 (hepg2), in the test on A549 and in the test on MIA PaCa-2 was “Not Active” in each case.
For the compound `C[N+](C)(C)CCc1cc(I)c(O)c(I)c1.O=C([O-])C(F)(F)F`, the outcome in the test with Staphylococcus aureus [1], in the test with Staphylococcus aureus [2], with Escherichia coli, in the test on Klebsiella pneumoniae, in the test on Acinetobacter baumannii and with Pseudomonas aeruginosa was inactive. Besides, the outcome in the test on Candida albicans was inactive. The IC50 result in the test with HepG2 (hepg2), with A549 and in the test with MIA PaCa-2 was “Not Active” in each case.
As to `C[N+]1(C)CCC[C@@H]1C(=O)N[C@@H](Cc1cc(Br)c(O)c(I)c1)C(=O)O`, the result with Staphylococcus aureus [1], with Staphylococcus aureus [2], in the test on Escherichia coli, with Klebsiella pneumoniae, in the test on Acinetobacter baumannii and in the test on Pseudomonas aeruginosa was inactive. Further, in the test with Candida albicans, the result was inactive.
For the compound `CC(C)=CC(=O)Nc1nc2c([nH]1)[C@H](C)c1[nH]c(NC(=O)C(C)C)nc1CC2`, the outcome in the test with Staphylococcus aureus [1], with Staphylococcus aureus [2], in the test on Escherichia coli, in the test with Klebsiella pneumoniae, in the test with Acinetobacter baumannii and with Pseudomonas aeruginosa was inactive. For the same compound, the outcome with Candida albicans was inactive. Further, the IC50 result with HepG2 (hepg2), with A549 and in the test on MIA PaCa-2 was “Not Active” each time.
